Data published in ChEMBL document CHEMBL4842346, “Improving the metabolic stability of antifungal compounds based on a scaffold hopping strategy: Design, synthesis, and structure-activity relationship studies of dihydrooxazole derivatives” (Eur J Med Chem, 2021).
≈ marks a conversion by molar mass, not a printed value.

Tests used:
Candida tropicalis = experiment: Antifungal activity against Candida tropicalis GIM2.183 assessed as inhibition of fungal growth by NCCLS protocol based method; assay type: functional
Candida albicans [1] = experiment: Antifungal activity against Candida albicans SC5314 assessed as inhibition of fungal growth by NCCLS protocol based method; assay type: functional
Aspergillus fumigatus = experiment: Antifungal activity against Aspergillus fumigatus CGMCC3.7795 assessed as inhibition of fungal growth by NCCLS protocol based method; assay type: functional
Candida albicans [2] = experiment: Antifungal activity against Candida albicans GIM2.194 assessed as inhibition of fungal growth by NCCLS protocol based method; assay type: functional
Pichia kudriavzevii = experiment: Antifungal activity against Candida krusei GIM2.1 assessed as inhibition of fungal growth by NCCLS protocol based method; assay type: functional
Candida parapsilosis = experiment: Antifungal activity against Candida parapsilosis GIM2.190 assessed as inhibition of fungal growth by NCCLS protocol based method; assay type: functional; details: Lodderomyces parapsilosis
Candida albicans [3] = experiment: Antifungal activity against fluconazole resistant Candida albicans CaR assessed as inhibition of fungal growth by NCCLS protocol based method; assay type: functional
Candida albicans [4] = experiment: Antifungal activity against fluconazole and itraconazole resistant Candida albicans 17# assessed as inhibition of fungal growth by NCCLS protocol based method; assay type: functional
Cryptococcus neoformans [5] = experiment: Antifungal activity against Cryptococcus neoformans GIM2.209 assessed as inhibition of fungal growth by NCCLS protocol based method; assay type: functional
Candida albicans [6] = experiment: Antifungal activity against Candida albicans CPCC400523 assessed as inhibition of fungal growth by NCCLS protocol based method; assay type: functional
Cryptococcus neoformans [7] = experiment: Antifungal activity against Cryptococcus neoformans CGMCC2.3161 assessed as inhibition of fungal growth by NCCLS protocol based method; assay type: functional
[8] = target: T1, Lanosterol 14-alpha demethylase (Candida albicans (strain SC5314 / ATCC MYA-2876) (Yeast), UniProt P10613); experiment: Inhibition of Candida albicans CYP51 assessed as lanosterol level at 0.015 ug/ml measured after 18 hrs by GC-MS analysis relative to control; parameters: scale not given: the % may be the effect or the level left; details: at 0.015 µg/mL
[9] = Metabolic stability in human liver microsomes assessed as half life at 100 uM in the presence of NADPH measured upto 60 mins by LC-MS/MS analysis; assay type: ADME, Microsome
[10] = Intrinsic microsomal clearance in human liver microsomes at 100 uM in the presence of NADPH measured up to 60 mins by LC-MS/MS analysis; assay type: ADME, Microsome; details: read-out: CLH
[11] = Intrinsic hepatic clearance in human liver microsomes at 100 uM in the presence of NADPH measured up to 60 mins by LC-MS/MS analysis; assay type: ADME, Microsome; details: 1 h
[12] = Metabolic stability in human liver microsomes assessed as compound remaining at 100 uM measured after 60 mins in the presence of NADPH by LC-MS/MS analysis; assay type: ADME, Microsome; details: read-out: Stabilty
[13] = Metabolic stability in human liver microsomes assessed as compound remaining at 100 uM measured after 60 mins in the absence of NADPH by LC-MS/MS analysis; assay type: ADME, Microsome; details: read-out: Stabilty
[14] = Metabolic stability in human plasma assessed as parent compound remaining at 100 uM measured after 60 mins by LC-MS/MS analysis; assay type: ADME, cell-free; details: read-out: Stabilty
[15] = Metabolic stability in human plasma assessed as parent compound remaining at 100 uM measured after 120 mins by LC-MS/MS analysis; assay type: ADME, cell-free; details: 2 h
[16] = Metabolic stability in human plasma assessed as half life at 100 uM measured after 60 mins by LC-MS/MS analysis; assay type: ADME, cell-free
Cytochrome P450 1A2 = target: T2, Cytochrome P450 1A2 (Homo sapiens, UniProt P05177); experiment: Inhibition of CYP1A2 in human liver microsome incubated for 10 mins in the presence of NADPH by LC-MS/MS analysis; assay type: ADME, microsomes
T2 sequence (P05177 whole entry): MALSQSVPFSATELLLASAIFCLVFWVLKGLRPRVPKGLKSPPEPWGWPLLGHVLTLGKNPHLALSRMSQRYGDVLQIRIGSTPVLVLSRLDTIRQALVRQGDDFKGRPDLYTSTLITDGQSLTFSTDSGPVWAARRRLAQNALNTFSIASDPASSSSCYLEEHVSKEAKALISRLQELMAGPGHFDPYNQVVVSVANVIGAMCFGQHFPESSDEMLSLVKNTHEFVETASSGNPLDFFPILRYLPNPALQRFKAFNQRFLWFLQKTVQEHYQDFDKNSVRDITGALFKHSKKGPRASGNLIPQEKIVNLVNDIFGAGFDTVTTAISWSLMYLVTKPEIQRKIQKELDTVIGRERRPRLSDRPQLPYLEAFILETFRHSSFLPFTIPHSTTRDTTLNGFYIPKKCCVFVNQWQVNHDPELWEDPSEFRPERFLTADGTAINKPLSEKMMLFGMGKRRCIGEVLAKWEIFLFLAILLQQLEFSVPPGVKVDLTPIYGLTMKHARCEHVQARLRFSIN

Cytochrome P450 2C9 = Cytochrome P450 2C9 (Homo sapiens, UniProt P11712); experiment: Inhibition of CYP2C9 in human liver microsome incubated for 10 mins in the presence of NADPH by LC-MS/MS analysis; assay type: ADME, microsomes
Cytochrome P450 2C19 = Cytochrome P450 2C19 (Homo sapiens, UniProt P33261); experiment: Inhibition of CYP2C19 in human liver microsome incubated for 10 mins in the presence of NADPH by LC-MS/MS analysis; assay type: ADME, microsomes
Cytochrome P450 2D6 = Cytochrome P450 2D6 (Homo sapiens, UniProt P10635); experiment: Inhibition of CYP2D6 in human liver microsome incubated for 10 mins in the presence of NADPH by LC-MS/MS analysis; assay type: ADME, microsomes
Cytochrome P450 3A4 = Cytochrome P450 3A4 (Homo sapiens, UniProt P08684); experiment: Inhibition of CYP3A4 in human liver microsome incubated for 10 mins in the presence of NADPH by LC-MS/MS analysis; assay type: ADME, microsomes
[17] = target: T1, Lanosterol 14-alpha demethylase; experiment: Inhibition of Candida albicans CYP51 assessed as ergosterol level at 0.015 ug/ml measured after 18 hrs by GC-MS analysis relative to control; parameters: scale not given: the % may be the effect or the level left; details: at 0.015 µg/mL
[18] = target: T1, Lanosterol 14-alpha demethylase; experiment: Inhibition of Candida albicans CYP51 assessed as eburicol level at 0.015 ug/ml measured after 18 hrs by GC-MS analysis relative to control; parameters: scale not given: the % may be the effect or the level left; details: at 0.015 µg/mL
[19] = target: T1, Lanosterol 14-alpha demethylase; experiment: Inhibition of Candida albicans CYP51 assessed as 14alpha-methylergosta-8,24(28)-dien3beta-6alpha-diol level at 0.015 ug/ml measured after 18 hrs by GC-MS analysis relative to control; parameters: scale not given: the % may be the effect or the level left; details: at 0.015 µg/mL
[20] = target: T1, Lanosterol 14-alpha demethylase; experiment: Inhibition of Candida albicans CYP51 assessed as unknown sterol level at 0.015 ug/ml measured after 18 hrs by GC-MS analysis relative to control; parameters: scale not given: the % may be the effect or the level left; details: at 0.015 µg/mL

T1 sequence (P10613 whole entry): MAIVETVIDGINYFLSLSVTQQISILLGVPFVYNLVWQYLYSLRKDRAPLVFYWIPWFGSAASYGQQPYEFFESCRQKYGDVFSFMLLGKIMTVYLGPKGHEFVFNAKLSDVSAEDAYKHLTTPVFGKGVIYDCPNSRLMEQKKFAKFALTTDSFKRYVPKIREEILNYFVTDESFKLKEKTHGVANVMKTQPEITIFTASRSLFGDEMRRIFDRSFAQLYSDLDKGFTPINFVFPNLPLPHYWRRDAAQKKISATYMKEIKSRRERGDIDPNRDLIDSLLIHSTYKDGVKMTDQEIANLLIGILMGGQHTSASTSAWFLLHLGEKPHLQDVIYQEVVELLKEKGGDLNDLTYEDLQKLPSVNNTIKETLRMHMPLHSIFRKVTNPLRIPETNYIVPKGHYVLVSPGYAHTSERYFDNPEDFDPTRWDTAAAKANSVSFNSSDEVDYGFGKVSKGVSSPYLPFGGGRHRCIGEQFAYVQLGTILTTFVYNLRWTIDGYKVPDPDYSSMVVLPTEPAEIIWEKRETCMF
Cytochrome P450 2C9, sequence (P11712 whole entry): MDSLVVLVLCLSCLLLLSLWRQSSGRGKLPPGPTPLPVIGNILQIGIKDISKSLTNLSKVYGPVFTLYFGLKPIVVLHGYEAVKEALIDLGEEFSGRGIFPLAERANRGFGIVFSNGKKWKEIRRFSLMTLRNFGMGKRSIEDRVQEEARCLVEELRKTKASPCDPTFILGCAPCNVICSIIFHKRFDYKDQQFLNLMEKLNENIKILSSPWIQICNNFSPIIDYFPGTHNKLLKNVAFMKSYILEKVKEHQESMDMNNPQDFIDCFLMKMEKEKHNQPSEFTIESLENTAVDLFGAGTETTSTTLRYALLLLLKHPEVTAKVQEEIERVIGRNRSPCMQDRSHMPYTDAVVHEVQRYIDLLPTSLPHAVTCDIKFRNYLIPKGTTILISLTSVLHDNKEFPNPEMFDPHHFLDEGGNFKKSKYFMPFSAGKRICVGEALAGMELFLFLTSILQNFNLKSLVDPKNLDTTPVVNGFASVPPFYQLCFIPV
Cytochrome P450 2C19, sequence (P33261 whole entry): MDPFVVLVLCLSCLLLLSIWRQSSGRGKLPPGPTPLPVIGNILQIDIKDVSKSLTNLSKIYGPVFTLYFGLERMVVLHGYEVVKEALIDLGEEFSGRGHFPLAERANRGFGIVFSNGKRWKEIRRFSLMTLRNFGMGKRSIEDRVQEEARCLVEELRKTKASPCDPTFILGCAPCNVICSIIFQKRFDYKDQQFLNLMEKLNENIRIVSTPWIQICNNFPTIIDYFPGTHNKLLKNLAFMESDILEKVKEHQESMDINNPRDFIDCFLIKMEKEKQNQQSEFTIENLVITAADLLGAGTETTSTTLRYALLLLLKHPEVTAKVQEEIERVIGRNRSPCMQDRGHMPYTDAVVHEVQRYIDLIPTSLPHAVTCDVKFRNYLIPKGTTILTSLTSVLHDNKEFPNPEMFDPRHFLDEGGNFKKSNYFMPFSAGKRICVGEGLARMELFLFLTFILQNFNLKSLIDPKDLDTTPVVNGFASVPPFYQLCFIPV
Cytochrome P450 2D6, sequence (P10635 whole entry): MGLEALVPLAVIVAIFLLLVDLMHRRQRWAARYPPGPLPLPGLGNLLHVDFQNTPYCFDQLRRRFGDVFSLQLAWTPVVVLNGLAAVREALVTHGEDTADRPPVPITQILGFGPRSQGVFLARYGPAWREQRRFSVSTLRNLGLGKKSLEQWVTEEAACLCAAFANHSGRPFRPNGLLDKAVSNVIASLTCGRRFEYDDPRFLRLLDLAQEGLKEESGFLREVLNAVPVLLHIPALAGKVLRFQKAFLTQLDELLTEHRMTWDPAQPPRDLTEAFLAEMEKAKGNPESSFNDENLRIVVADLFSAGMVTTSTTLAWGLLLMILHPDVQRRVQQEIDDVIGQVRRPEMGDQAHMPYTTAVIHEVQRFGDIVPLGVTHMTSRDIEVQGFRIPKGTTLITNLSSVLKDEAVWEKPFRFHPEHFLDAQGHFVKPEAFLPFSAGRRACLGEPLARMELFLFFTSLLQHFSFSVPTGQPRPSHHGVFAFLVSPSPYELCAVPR
Cytochrome P450 3A4, sequence (P08684 whole entry): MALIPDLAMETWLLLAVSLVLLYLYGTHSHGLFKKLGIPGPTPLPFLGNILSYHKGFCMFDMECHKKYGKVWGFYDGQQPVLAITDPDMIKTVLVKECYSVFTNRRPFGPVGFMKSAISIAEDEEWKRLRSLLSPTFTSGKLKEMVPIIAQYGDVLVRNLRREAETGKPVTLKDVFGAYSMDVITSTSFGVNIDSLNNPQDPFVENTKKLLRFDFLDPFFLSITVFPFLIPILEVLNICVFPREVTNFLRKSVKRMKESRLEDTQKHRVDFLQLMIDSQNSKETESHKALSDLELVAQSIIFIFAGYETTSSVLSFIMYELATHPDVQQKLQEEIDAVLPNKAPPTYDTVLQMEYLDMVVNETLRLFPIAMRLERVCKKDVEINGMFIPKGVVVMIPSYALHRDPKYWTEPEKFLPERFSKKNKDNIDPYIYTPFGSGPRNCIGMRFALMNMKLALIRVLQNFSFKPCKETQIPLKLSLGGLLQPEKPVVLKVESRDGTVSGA

MIC (Cryptococcus neoformans [5])	SMILES	MIC (Candida tropicalis)	MIC (Candida albicans [1])	MIC (Aspergillus fumigatus)	MIC (Candida albicans [2])	MIC (Pichia kudriavzevii)	MIC (Candida parapsilosis)	MIC (Candida albicans [3])	MIC (Candida albicans [4])	other results
–	Fc1cccc(-c2ccc(C3=NC(Cn4cncn4)(c4ccc(F)cc4F)CO3)cc2)c1 (stereo not given)	0.06 µg/mL (≈ 0.138 µM)	< 0.03 µg/mL	> 64 µg/mL	0.06 µg/mL (≈ 0.138 µM)	0.25 µg/mL (≈ 0.575 µM)	> 64 µg/mL	0.5 µg/mL (≈ 1.15 µM)	> 64 µg/mL	–
–	Fc1ccccc1-c1ccc(C2=NC(Cn3cncn3)(c3ccc(Cl)cc3)CO2)cc1 (stereo not given)	0.06 µg/mL (≈ 0.139 µM)	< 0.03 µg/mL	> 64 µg/mL	< 0.03 µg/mL	0.25 µg/mL (≈ 0.578 µM)	4 µg/mL (≈ 9.24 µM)	0.25 µg/mL (≈ 0.578 µM)	> 64 µg/mL	–
–	Fc1cccc(-c2ccc(C3=NC(Cn4cncn4)(c4cccc(F)c4)CO3)cc2)c1 (stereo not given)	0.25 µg/mL (≈ 0.6 µM)	0.06 µg/mL (≈ 0.144 µM)	> 64 µg/mL	0.06 µg/mL (≈ 0.144 µM)	> 64 µg/mL	> 64 µg/mL	> 64 µg/mL	> 64 µg/mL	–
> 64 µg/mL	O=C(c1ccccc1)C1(Cn2ccnc2)COC(c2ccc(-c3ccccc3)cc2)=N1 (stereo not given)	> 64 µg/mL	0.5 µg/mL (≈ 1.23 µM)	> 64 µg/mL	> 64 µg/mL	–	–	–	–	–
> 64 µg/mL	CC1(Cn2ccnc2)COC(c2ccc(-c3ccccc3)cc2)=N1 (stereo not given)	4 µg/mL (≈ 12.6 µM)	2 µg/mL (≈ 6.3 µM)	0.5 µg/mL (≈ 1.58 µM)	8 µg/mL (≈ 25.2 µM)	–	–	–	–	–
–	O=C(c1ccc(-c2ccccc2)cc1)N1CCC[C@@H]1Cn1ccnc1	–	> 64 µg/mL	> 64 µg/mL	–	–	–	–	–	MIC (Candida albicans [6]): > 64 µg/mL; MIC (Cryptococcus neoformans [7]): > 64 µg/mL
–	Fc1cccc(C2(Cn3cncn3)COC(c3ccc(-c4ccccc4F)cc3)=N2)c1 (stereo not given)	0.25 µg/mL (≈ 0.6 µM)	0.06 µg/mL (≈ 0.144 µM)	> 64 µg/mL	0.06 µg/mL (≈ 0.144 µM)	> 64 µg/mL	> 64 µg/mL	> 64 µg/mL	> 64 µg/mL	–
–	Fc1cccc(-c2ccc(C3=NC(Cn4cncn4)(c4ccc(Cl)cc4)CO3)cc2)c1 (stereo not given)	0.06 µg/mL (≈ 0.139 µM)	< 0.03 µg/mL	> 64 µg/mL	< 0.03 µg/mL	0.25 µg/mL (≈ 0.578 µM)	4 µg/mL (≈ 9.24 µM)	0.25 µg/mL (≈ 0.578 µM)	> 64 µg/mL	–
–	Fc1ccc(C2(Cn3cncn3)COC(c3ccc(-c4cccc(F)c4)cc3)=N2)cc1 (stereo not given)	0.06 µg/mL (≈ 0.144 µM)	< 0.03 µg/mL	> 64 µg/mL	< 0.03 µg/mL	0.25 µg/mL (≈ 0.6 µM)	8 µg/mL (≈ 19.2 µM)	0.5 µg/mL (≈ 1.2 µM)	> 64 µg/mL	Activity [8]: 18.96%; half-life at 100 µM [9]: 0.985 h; microsomal CLint at 100 µM [10]: 23.5 µL/min/mg; CLH [11]: 1.27 mL/h/kg; remaining at 1 h, 100 µM [12]: 47.1%; remaining at 1 h, 100 µM [13]: 79.9%; remaining at 1 h, 100 µM [14]: 98.7%; Stabilty [15]: 115.8%; half-life at 100 µM [16]: > 4.8 h; IC50 (Cytochrome P450 1A2): 21.2 µM; IC50 (Cytochrome P450 2C9): 3.8 µM; IC50 (Cytochrome P450 2C19): 1.3 µM; IC50 (Cytochrome P450 2D6): 40.1 µM; IC50 (Cytochrome P450 3A4): 15.2 µM; Activity [17]: 35.8%; Activity [18]: 7.04%; Activity [19]: 34.14%; Activity [20]: 1.73%
–	c1ccc(-c2ccc(C3=N[C@H](Cn4ccnc4)CO3)cc2)cc1	–	> 64 µg/mL	> 64 µg/mL	–	–	–	–	–	MIC (Candida albicans [6]): > 64 µg/mL; MIC (Cryptococcus neoformans [7]): > 64 µg/mL
32 µg/mL (≈ 84.3 µM)	c1ccc(-c2ccc(C3=NC(Cn4ccnc4)(c4ccccc4)CO3)cc2)cc1 (stereo not given)	< 0.125 µg/mL	< 0.125 µg/mL	1 µg/mL (≈ 2.64 µM)	< 0.125 µg/mL	–	–	–	–	half-life at 100 µM [9]: 1.77 h
> 64 µg/mL	c1ccc(CC2(Cn3ccnc3)COC(c3ccc(-c4ccccc4)cc3)=N2)cc1 (stereo not given)	0.5 µg/mL (≈ 1.27 µM)	< 0.125 µg/mL	> 64 µg/mL	0.5 µg/mL (≈ 1.27 µM)	–	–	–	–	–
